Measured values reported in publication PMC8953086, “Repurposing Avasimibe to Inhibit Bacterial Glycosyltransferases” (Pathogens, 2022).
pIC50: −log10 of the molar value.

Experiments:
SseK1 = SseK1 (Salmonella enterica, UniProt A0A0H3NK84); test: biochemical
NleB = NleB (Citrobacter rodentium, UniProt A0A482PDI9); test: biochemical
Sequence of NleB (A0A482PDI9 whole entry, looked up): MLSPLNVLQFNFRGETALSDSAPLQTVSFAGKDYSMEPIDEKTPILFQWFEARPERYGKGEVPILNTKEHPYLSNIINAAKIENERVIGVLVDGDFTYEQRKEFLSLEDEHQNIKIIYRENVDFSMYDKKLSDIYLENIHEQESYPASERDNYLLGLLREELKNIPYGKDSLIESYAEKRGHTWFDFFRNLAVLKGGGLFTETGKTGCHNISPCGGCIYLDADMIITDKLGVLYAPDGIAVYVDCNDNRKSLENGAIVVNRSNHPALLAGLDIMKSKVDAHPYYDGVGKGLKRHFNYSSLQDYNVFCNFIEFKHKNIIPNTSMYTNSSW

Sequence of SseK1 (A0A0H3NK84 whole entry, looked up): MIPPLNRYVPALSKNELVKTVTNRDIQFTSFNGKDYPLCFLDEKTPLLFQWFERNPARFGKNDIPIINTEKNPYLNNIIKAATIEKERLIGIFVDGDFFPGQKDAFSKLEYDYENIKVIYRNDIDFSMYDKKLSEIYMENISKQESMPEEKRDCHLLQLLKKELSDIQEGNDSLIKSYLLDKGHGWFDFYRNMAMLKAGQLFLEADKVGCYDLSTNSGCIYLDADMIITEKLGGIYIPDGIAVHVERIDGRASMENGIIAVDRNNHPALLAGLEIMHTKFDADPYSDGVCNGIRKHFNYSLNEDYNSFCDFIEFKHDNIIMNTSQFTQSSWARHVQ

In the case of `CC(C)c1cc(C(C)C)c(CC(=O)NS(=O)(=O)Oc2c(C(C)C)cccc2C(C)C)c(C(C)C)c1` [avasimibe], the pIC50 (SseK1) was roughly 5.00 and the pIC50 (NleB) was roughly 5.00.
